Test results published in US20160228420A1, “POLYETHYLENE GLYCOL-CONTAINING COMPOSITION” (SANTEN PHARMACEUTICAL CO., LTD., priority 2013, published 2016).

What was measured:
[1] = system: VEGF induced retinal vascular permeability promotion; test: VEGF induced rabbit retinal vascular permeability promotion model; format: in vivo; settings: 0.5 mg/eye intravitreal in PEG 400; VEGF 2 months after administration; vitreous fluorescein 2 days after VEGF
Description: By using the VEGF induced rabbit retinal vascular permeability promotion model, usefulness of the polyethylene glycol 400 formulation of Compound A was evaluated. Incidentally, the VEGF has been reported to promote retinochoroidal vascular permeability by intravitreal administration (Invest Ophthalmol Vis Sci. 2013; 54(1):503-11.), and has generally been used for preparation of a pathological condition accompanied by retinal and choroidal vascular disorder (for example, diabetic retinopathy, diabetic macular edema, retinal vein occlusion, retinal artery occlusion, exudative age-related macular degeneration, etc.).
To 1.5 g of the present compound A was added 12 mL of polyethylene glycol 400 (NOF CORPORATION) and the mixture was stirred, and after confirming the dissolution thereof, a suitable amount of polyethylene glycol 400 was added to make the whole amount 15 mL. […]
After 2 days from the VEGF administration, 0.1 mL/kg of a 10% fluorescein solution was intravenously administered to rabbits. After 2 hours from administration of the fluorescein, the fluorescein concentration in the vitreous body was measured by fluorophotometry, and this was used as an index of the retinal vascular permeability.
Thereafter, according to Formula 1, an inhibition ratio (%) of the administered medicine to the retinal vascular permeability promotion caused by VEGF was calculated. […]

[2] = disclosed in Patent Document 2; cited from earlier work
[3] = repeated oral administration; disclosed in Patent Document 2; cited from earlier work

SMILES	Inhibition ratio (%) (retinal vascular permeability) [1]	storage stability [2]	deposition of minerals in the stomach [3]
O=C(CO)Nc1cc(CSc2ncccc2C(=O)Nc2ccc(OC(F)(F)F)cc2)ccn1 [Compound A, 2-[[[2-[(hydroxyacetyl)amino]-4-pyridinyl]methyl]thio]-N-[4-(trifluoromethoxy)phenyl]-3-pyridinecaboxamide]	95.3		
O=C(CO)Nc1cc(CSc2ncccc2C(=O)Nc2ccc(OC(F)(F)F)cc2)ccn1.O=S(=O)(O)c1ccccc1 [2-[[[2-[(hydroxyacetyl)amino]-4-pyridinyl]methyl]thio]-N-[4-(trifluoromethoxy)phenyl]-3-pyridinecaboxamide]		excellent	no deposition of minerals is recognized
